Counter-ions that a name gives are not always drawn. Where only a bound is given, the exact number is not on record here.

Broadly, the IC50 is the point on the concentration scale where inhibition reaches its midpoint. Read a low IC50 as inhibition by little substance.

In the first experiment the target is T1, ACC1 from rat liver (Rattus norvegicus, UniProt P11497).
T1 construct: The livers (for ACC1 preparation) or skeletal muscle tissue (for ACC2 preparation) are removed; from tissue; host or cells: liver of male CD rats (fasted, then fed a high sucrose diet)
Briefly: Direct inhibition of ACC1 activity (14C-bicarbonate incorporation). In kind it is biochemical. To be noted: ACC1 from rat liver. How it is done:
[1] Preparation of ACC1 and ACC2.
Male CD rats weighing 150-200 g are fasted for 2 days and then fed a high sucrose diet (AIN-76A rodent diet; Cat # D10001, Research Diets Inc., New Brunswick, N.J.), for 3 days at which time they are sacrificed by CO2 asphyxiation. The livers (for ACC1 preparation) or skeletal muscle tissue (for ACC2 preparation) are removed, rinsed in ice-cold phosphate-buffered saline (PBS), and homogenized in 5 volumes of homogenization buffer (50 mM potassium phosphate, pH 7.5, 10 mM EDTA, 10 mM 2-mercaptoethanol, 2 mM benzamidine, 0.2 mM phenylmethylsulfonylfluoride (PMSF), 5 mg/L each leupeptin, aprotinin, and antitrypsin) in a Waring® blender for 1 minute at 4° C. All subsequent operations are carried out at 4° C. The homogenate is made 3% with respect to polyethylene glycol (PEG) by the addition of 50% PEG solution and centrifuged at 20,000×g for 15 minutes. The resulting supernatant is adjusted to 5% PEG with the addition of 50% PEG solution and stirred for 5 minutes. The pellet (contains ACC activity) is collected by centrifugation at 20,000×g for 20 minutes, rinsed with Ice-cold doubly distilled water to remove excess PEG and re-suspended in one-fourth the original homogenate volume with homogenization buffer. Ammonium sulfate (200 g/liter) is slowly added with stirring. After 45 minutes the enzyme is collected by centrifugation for 30 minutes at 20,000×g, re-suspended in 10 ml of 50 mM HEPES, pH7.5, 0.1 mM DTT, 1.0 mM EDTA, and 10% glycerol and desalted on a Sephadex™ G-25 column (2.5 cm-x 50 cm) (Pharmacia, Piscataway N.J. now GE Healthcare) […] equilibrated with the same buffer. The desalted enzyme preparation is stored in aliquots at −70° C. Immediately prior to use, frozen ACC1 or ACC2 aliquots are thawed, diluted to 500 μg/ml in buffer containing 50 mM HEPES, pH7.5, 1.0 mM MgCl2, 10 mM tripotassium citrate, 2.0 mM dithiothreitol (DTT), and 0.75 mg/ml fatty acid-free bovine serum albumin (BSA) and pre-incubated at 37° C. for 30 minutes.
[2] Measurement of ACC inhibition. The procedures for measuring ACC1 inhibition and ACC2 inhibition are identical except for the source of the isozyme. For measurement of ACC activity and assessment of ACC inhibition, test compounds are dissolved in dimethylsulfoxide (DMSO) and 1 μL aliquots are placed in 0.5 ml polypropylene tubes. Control tubes contain 1 μL of DMSO alone. Tubes are incubated at 37° C. in a constant temperature water bath. […] The reaction is then initiated by the addition of 10 μL of preincubated ACC fraction prepared as described above. After 7 minutes the reaction is terminated by the addition of 50 μL of 6N HCl and a 150 μL aliquot of the reaction mixture is transferred to glass scintillation vials and evaporated to dryness at 90° C. for at least 1 hour. The dried vials are then cooled, 0.5 ml of water and 5.5 ml of Ready Safe liquid scintillation fluid (Beckman Coulter Inc., Fullerton, Calif.) are added, and the radioactivity is determined using a liquid scintillation counter. Tubes that received HCl before ACC served as blanks.
The compound `COc1cccc2c1C(=O)CC1(CCN(C(=O)c3cc(C)c4[nH]ncc4c3)CC1)O2` [Ex. A25, 5-methoxy-1′-[(7-methyl-1H-indazol-5-yl)carbonyl]spiro[chromene-2,4′-piperidin]-4(3H)-one] gave an IC50 of 112 nM.
The same measure, in the same setting: for `Cc1cc2c(cc1C)C(=O)CC1(CCN(C(=O)c3cc(C)c4[nH]nc(C)c4c3)CC1)O2` [Ex. E3, 1′-[(3,7-dimethyl-1H-indazol-5-yl)carbonyl]-6,7-dimethylspiro[chromene-2,4′-piperidin]-4(3H)-one] the value was 9.8 nM; for `Cc1cc(C(=O)N2CCC3(CC2)CC(=O)c2cc(C#N)ccc2O3)cc2cn[nH]c12` [Ex. A31, 1′-[(7-methyl-1H-indazol-5-yl)carbonyl]-4-oxo-3,4-dihydrospiro[chromene-2,4-piperidine]+carbonitrile], 234 nM.
The same measure, in the same setting: for `COc1cccc2c1C(=O)CC1(CCN(C(=O)c3ccc4[nH]c5c(c4c3)CCNC5=O)CC1)O2` [Ex. K2, 5-methoxy-1′-[(1-oxo-2,3,4,9-tetrahydro-1H-beta-carbolin-6-yl)carbonyl]spiro[chromene-2,4′-piperidin]-4(3H)-one] the value was 28.8 nM; for `Cc1cc2c(cc1C)C(=O)CC1(CCN(C(=O)c3ccc4c(c3)CC(=O)N4)CC1)O2` [Ex. L13, 6,7-dimethyl-1′-[(2-oxo-2,3-dihydro-1H-indol-5-yl)carbonyl]spiro[chromene-2,4′-piperidin]-4(3H)-one], less than 3000 nM.
The compound `COc1c(Cl)ccc2c1C(=O)CC1(CCN(C(=O)c3cccc4cn[nH]c34)CC1)O2` [Ex. H17, 6-chloro-1′-(1H-indazol-7-ylcarbonyl)-5-methoxyspiro[chromene-2,4′-piperidin]-4(3H)-one] came in with an IC50 of 1830 nM.
The same measure, in the same setting: for `Cc1cc2c(cc1C)C(=O)CC1(CCN(C(=O)c3cccc4c3ncn4C(C)C)CC1)O2` [Ex. L21, 1′-[(1-isopropyl-1H-benzimidazol-4-yl)carbonyl]-6,7-dimethylspiro[chromene-2,4′-piperidin]-4(3H)-one trifluoroacetic acid salt] the value was 670 nM; for `CC(C)n1nnc2cc(C(=O)N3CCC4(CC3)CC(=O)c3cc(Cl)ccc3O4)ccc21` [Ex. L42, 6-chloro-1′-[(1-isopropyl-1H-1,2,3-benzotriazol-5-yl)carbonyl]spiro[chromene-2,4′-piperidin]-4(3H)-one], more than 1000 nM; for `Cc1ccc2c(c1)OC1(CCN(C(=O)c3cccc4cn[nH]c34)CC1)CC2=O` [Ex. H12, 1′-(1H-indazol-7-ylcarbonyl)-7-methylspiro[chromene-2,4-piperidin]4(3H)-one], 850 nM.
In the case of `COc1cc(C)cc2c1C(=O)CC1(CCN(C(=O)c3cccc4cn[nH]c34)CC1)O2` [Ex. H4, 1′-(1H-indazol-7-ylcarbonyl)-5-methoxy-7-methylspiro[chromene-2,4′-piperidin]-4(3H)-one], the IC50 turned out to be 279 nM.
In turn, `Cc1cc(C(=O)N2CCC3(CC2)CC(=O)c2cc(C(N)=O)ccc2O3)cc2cn[nH]c12` [Ex. A10, 1′-[(7-methyl-1H-indazol-5-yl)carbonyl]-4-oxo-3,4-dihydrospiro[chromene-2,4′-piperidine]-6-carboxamide] displayed an IC50 of 38.2 nM.
Same read-out and setting: the result for `Cc1cc2c(cc1C)C(=O)CC1(CCN(C(=O)c3ccc4c(c3)CCC(=O)N4)CC1)O2` [L44, 6,7-dimethyl-1′-[(2-oxo-1,2,3,4-tetrahydroquinolin-6-yl)carbonyl]spiro[chromene-2,4′-piperidin]-4(3H)-one] reads less than 3000 nM.
Take `COc1c(C(=O)N2CCC3(CC2)CC(=O)c2cc(C)c(C)cc2O3)cc(Cl)c2nc(C)[nH]c12` [Ex. L27, 1′-[(4-chloro-7-methoxy-2-methyl-1H-benzimidazol-6-yl)carbonyl]-6,7-dimethylspiro[chromene-2,4′-piperidin]-4(3H)-one]: the IC50 is more than 1000 nM.
On the same count and under the same terms, the result for `Cc1cc2c(cc1Cl)C(=O)CC1(CCN(C(=O)c3ccc4[nH]nnc4c3)CC1)O2` [Ex. L40, 1′-(1H-1,2,3-benzotriazol-5-ylcarbonyl)-6-chloro-7-methylspiro[chromene-2,4′-piperidin]-4(3H)-one] reads 4860 nM; that for `Cc1cc2c(c(C)c1Cl)C(=O)CC1(CCN(C(=O)c3cccc4cn[nH]c34)CC1)O2` [Ex. H8, 6-chloro-1′-(1H-indazol-7-ylcarbonyl)-5,7-dimethylspiro[chromene-2,4′-piperidin]-4(3H)-one], 590 nM; that for `Cc1cc(C(=O)N2CCC3(CC2)CC(=O)c2cc(S(C)(=O)=O)ccc2O3)cc2cn[nH]c12` [Ex. A35, 1′-[(7-methyl-1H-indazol-5-yl)carbonyl]-6-(methylsulfonyl)spiro[chromene-2,4′-piperidin]-4(3H)-one], 1110 nM.
Still for that read-out and setting: for `Cc1cc2c(cc1C)C(=O)CC1(CCN(C(=O)c3ccc4[nH]nnc4c3)CC1)O2` [Ex. L39, 1′-(1H-1,2,3-benzotriazol-5-ylcarbonyl)-6,7-dimethylspiro[chromene-2,4′-piperidin]-4(3H)-one trifluoroacetic acid salt] the value was 362 nM.

The same experiment, now with this note: Table of Examples M1-M36.
The compound `Cc1ccc2c(c1)C(=O)CC1(CCN(C(=O)c3cccc(-c4cc[nH]n4)c3)CC1)O2` [Ex. M23, 6-methyl-1′-[3-(1H-pyrazol-3-yl)benzoyl]spiro[chromene-2,4′-piperidin]-4(3H)-one] gave an IC50 of 475 nM.
On the same count and under the same terms, for `Cc1cc2c(cc1Cl)OC1(CCN(C(=O)c3cccc(-c4cc[nH]n4)c3)CC1)CC2=O` [Ex. M7, 7-chloro-6-methyl-1′-[3-(1H-pyrazol-3-yl)benzoyl]spiro[chromene-2,4′-piperidin]-4(3H)-one] the value was 140 nM; for `O=C1CC2(CCN(C(=O)c3cccc(-c4cc[nH]n4)c3)CC2)Oc2cc(F)c(Cl)cc21` [Ex. M24, 6-chloro-7-fluoro-1′-[3-(1H-pyrazol-3-yl)benzoyl]spiro[chromene-2,4′-piperidin]-4(3H)-one], 478 nM; for `O=C1CC2(CCN(C(=O)c3cccc(-c4cc[nH]n4)c3)CC2)Oc2cc(Cl)cc(Cl)c21` [Ex. M16, 5,7-dichloro-1′-[3-(1H-pyrazol-3-yl)benzoyl]spiro[chromene-2,4′-piperidin]-4(3H)-one], 319 nM.

Staying with this experiment, now noted: Table of Examples O1-O4.
Compound `COc1cc(Cl)cc2c1C(=O)CC1(CCN(C(=O)c3cccc(-c4ccn[nH]4)c3)CC1)O2` [Ex. O3, 7-chloro-5-methoxy-1′-[3-(1H-pyrazol-5-yl)benzoyl]spiro[chromene-2,4′-piperidin]-4(3H)-one] yielded an IC50 of 455 nM.

Still in this experiment, the particulars now being: Table of Examples P1-P15.
`Cc1cc2c(cc1C)C(=O)CC1(CCN(C(=O)c3cc(-c4ccnn4C)ccc3Cl)CC1)O2` [Ex. P10, 1′-[2-chloro-5-(1-methyl-1H-pyrazol-5-yl)benzoyl]-6,7-dimethylspiro[chromene-2,4′-piperidin]-4(3H)-one] yielded an IC50 of less than 3000 nM.
Still for that read-out and setting: for `CCOc1ccc(-c2cc[nH]n2)cc1C(=O)N1CCC2(CC1)CC(=O)c1cc(Cl)c(C)cc1O2` [Ex. P9, 6-chloro-1′-[2-ethoxy-5-(1H-pyrazol-3-yl)benzoyl]-7-methylspiro[chromene-2,4′-piperidin]-4(3H)-one] the value was 1060 nM; for `Cc1nc(-c2cccc(C(=O)N3CCC4(CC3)CC(=O)c3cc(C)c(C)cc3O4)c2)no1` [Ex. P14, 6,7-Dimethyl-1′-[3-(5-methyl-1,2,4-oxadiazol-3-yl)benzoyl]spiro[chromene-2,4′-piperidin]-4(3H)-one], less than 3000 nM.
The same measure, in the same setting: for `CCc1nc(-c2cccc(C(=O)N3CCC4(CC3)CC(=O)c3cc(C)c(C)cc3O4)c2)no1` [Ex. P15, 6,7-Dimethyl-1′-[3-(5-ethyl-1,2,4-oxadiazol-3-yl)benzoyl]spiro[chromene-2,4′-piperidin]-4(3H)-one] the value was 7030 nM; for `Cc1cc2c(cc1C)C(=O)CC1(CCN(C(=O)c3cccc(-c4ccncn4)c3)CC1)O2` [Ex. P13, 6,7-Dimethyl 1′-[3-(pyrimidin-4-yl)benzoyl]spiro[chromene-2,4′-piperidin]-4(3H)-one], less than 3000 nM.

The values are drawn from patent publication US20090270435A1 (priority 2006, published 2009).
